Results published in patent US12357623B2, “Method for treating a disease or condition using a pyrazole compound or formulation thereof” (Rigel Pharmaceuticals, Inc., priority 2021, dated 2025).
Structures can show the parent of a compound that is named as a salt.

Assays:
[1] = Physical and chemical stability of salts of compound I-18; format: physicochemical; conditions: for Area (%) of peak at RRT 1.00: main peak; for Area (%) of peak at RRT 1.17: peak corresponds to I-1 formed by hydrolysis; for Initial purity: before storage
Experimental: The physical and chemical stability of the K salt, Arginine salt, Choline salt and Tris salt were evaluated under conditions of 25° C./60% RH and 40° C./75% RH for 1 week. Each sample was added into 3 mL glass vials, sealed by parafilm with several holes, and kept under tested condition. After one week, samples was taken for XRPD and HPLC purity test.

[2] = Hygroscopicity evaluation (DVS) of salts of compound I-18; format: physicochemical; conditions: 25° C.
Experimental: To investigate the solid form stability as a function of humidity, DVS isotherm plot of the K salt, Arginine salt, Choline salt and Tris salt were collected at 25° C. between 0 and 95% RH.

[3] = 25° C./60% RH, 1 week, listed as tris salt
[4] = 40° C./75% RH, 1 week, listed as tris salt
[5] = 25° C./60% RH, 1 week, listed as potassium salt
[6] = 40° C./75% RH, 1 week, listed as potassium salt
[7] = Initial, listed as potassium salt
[8] = 25° C./60% RH, 1 week, listed as arginine salt
[9] = 40° C./75% RH, 1 week, listed as arginine salt
[10] = Initial, listed as arginine salt

CCO[C@H]1CC[C@H](n2cc(NC(=O)c3csc(-c4cnn(C(C)OP(=O)(O)O)c4)n3)c(-c3nc(F)ccc3F)n2)CC1 (some centres unmarked) [Compound I-49, 1-(4-(4-((3-(3,6-difluoropyridin-2-yl)-1-((1r, 4r)-4-ethoxycyclohexyl)-1H-pyrazol-4-yl)carbamoyl)thiazol-2-yl)-1H-pyrazol-1-yl)ethyl dihydrogen phosphate tris salt]
Area (%) of peak at RRT 1.13 ([1]; 25° C./60% RH, 1 week): 0.06% | Area (%) of peak at RRT 0.77 [1, 3]: <0.03% | Area (%) of peak at RRT 1.45 [1, 3]: 0.35% | Area (%) of peak at RRT 1.71 [1, 3]: 0.80% | Area (%) of peak at RRT 1.73 [1, 3]: 0.55% | HPLC purity change [1, 3]: no HPLC purity decrease | Area (%) of peak at RRT 1.00 [1, 3]: 96.61% | Area (%) of peak at RRT 1.17 [1, 3]: 1.63% | Form change (XRPD) ([1]; 25° C./60% RH/1 week, listed as Tris salt): no form change and No | Area (%) of peak at RRT 0.77 [1, 4]: 0.03% | Area (%) of peak at RRT 1.45 [1, 4]: 0.47% | Area (%) of peak at RRT 1.71 [1, 4]: 0.88% | Area (%) of peak at RRT 1.73 [1, 4]: 0.84% | HPLC purity change [1, 4]: a purity decrease was observed | Area (%) of peak at RRT 1.00 [1, 4]: 95.03% | Area (%) of peak at RRT 1.17 [1, 4]: 2.69% | Form change (XRPD) ([1]; 40° C./75% RH/1 week, listed as Tris salt): no form change and No | Area (%) of peak at RRT 0.77 ([1]; Initial, listed as tris salt): <0.03% | Area (%) of peak at RRT 1.13 ([1]; Initial, listed as tris salt): 0.07% | Area (%) of peak at RRT 1.45 ([1]; Initial, listed as tris salt): 0.37% | Area (%) of peak at RRT 1.71 ([1]; Initial, listed as tris salt): 0.86% | Area (%) of peak at RRT 1.73 ([1]; Initial, listed as tris salt): 0.76% | Area (%) of peak at RRT 1.00 ([1]; Initial, listed as tris salt): 96.06% | Area (%) of peak at RRT 1.17 ([1]; Initial, listed as tris salt): 1.87% | Initial purity ([1]; listed as Tris salt): 96.06 area % | water uptake (DVS) ([2]; at 70% RH, listed as Tris salt): 6.06% | water uptake (DVS) ([2]; at 95% RH, listed as Tris salt): 39.5%

CCO[C@H]1CC[C@H](n2cc(NC(=O)c3csc(-c4cnn(C(C)OP(=O)(O)O)c4)n3)c(-c3nc(F)ccc3F)n2)CC1 (some centres unmarked) [Compound I-108, potassium 1-(4-(4-((3-(3,6-difluoropyridin-2-yl)-1-((1r, 4r)-4-ethoxycyclohexyl)-1H-pyrazol-4-yl)carbamoyl)thiazol-2-yl)-1H-pyrazol-1-yl)ethyl hydrogen phosphate]
Area (%) of peak at RRT 1.14 ([1]; 25° C./60% RH, 1 week): <0.04% | Area (%) of peak at RRT 1.40 ([1]; 25° C./60% RH, 1 week): 0.25% | Area (%) of peak at RRT 1.44 ([1]; 25° C./60% RH, 1 week): 0.30% | Area (%) of peak at RRT 1.70 ([1]; 25° C./60% RH, 1 week): 0.27% | Area (%) of peak at RRT 1.72 ([1]; 25° C./60% RH, 1 week): 0.78% | Area (%) of peak at RRT 1.81 ([1]; 25° C./60% RH, 1 week): <0.04% | HPLC purity change ([1]; 25° C./60% RH, 1 week, listed as K salt): slight purity decrease | Area (%) of peak at RRT 1.00 [1, 5]: 96.26% | Area (%) of peak at RRT 1.17 [1, 5]: 2.14% | Form change (XRPD) ([1]; 25° C./60% RH/1 week, listed as K salt): no form change and No | Area (%) of peak at RRT 1.14 ([1]; 40° C./75% RH, 1 week): 0.05% | Area (%) of peak at RRT 1.40 ([1]; 40° C./75% RH, 1 week): 0.39% | Area (%) of peak at RRT 1.44 ([1]; 40° C./75% RH, 1 week): 0.24% | Area (%) of peak at RRT 1.70 ([1]; 40° C./75% RH, 1 week): 0.24% | Area (%) of peak at RRT 1.72 ([1]; 40° C./75% RH, 1 week): 0.83% | Area (%) of peak at RRT 1.81 ([1]; 40° C./75% RH, 1 week): 0.04% | HPLC purity change ([1]; 40° C./75% RH, 1 week, listed as K salt): slight purity decrease | Area (%) of peak at RRT 1.00 [1, 6]: 96.40% | Area (%) of peak at RRT 1.17 [1, 6]: 1.80% | Form change (XRPD) ([1]; 40° C./75% RH/1 week, listed as K salt): a form change was observed and Yes | Area (%) of peak at RRT 1.14 ([1]; Initial): <0.04% | Area (%) of peak at RRT 1.40 ([1]; Initial): 0.23% | Area (%) of peak at RRT 1.44 ([1]; Initial): 0.21% | Area (%) of peak at RRT 1.70 ([1]; Initial): 0.18% | Area (%) of peak at RRT 1.72 ([1]; Initial): 0.77% | Area (%) of peak at RRT 1.81 ([1]; Initial): <0.04% | Area (%) of peak at RRT 1.00 [1, 7]: 97.27% | Area (%) of peak at RRT 1.17 [1, 7]: 1.33% | Initial purity ([1]; listed as K salt): 97.27 area % | water uptake (DVS) ([2]; at 70% RH, listed as K salt): 0.42% | water uptake (DVS) ([2]; at 95% RH, listed as K salt): 16.5%

CCO[C@H]1CC[C@H](n2cc(NC(=O)c3csc(-c4cnn(C(C)OP(=O)(O)O)c4)n3)c(-c3nc(F)ccc3F)n2)CC1 (some centres unmarked) [Compound I-110, 1-(4-(4-((3-(3,6-difluoropyridin-2-yl)-1-((1r, 4r)-4-ethoxycyclohexyl)-1H-pyrazol-4-yl)carbamoyl)thiazol-2-yl)-1H-pyrazol-1-yl)ethyl dihydrogen phosphate arginine salt]
Area (%) of peak at RRT 1.13 ([1]; 25° C./60% RH, 1 week): 0.06% | Area (%) of peak at RRT 0.77 [1, 8]: 0.03% | Area (%) of peak at RRT 1.35 [1, 8]: 0.06% | Area (%) of peak at RRT 1.45 [1, 8]: 0.50% | Area (%) of peak at RRT 1.71 [1, 8]: 0.74% | Area (%) of peak at RRT 1.73 [1, 8]: 0.61% | HPLC purity change [1, 8]: slight purity decrease | Area (%) of peak at RRT 1.00 [1, 8]: 95.31% | Area (%) of peak at RRT 1.17 [1, 8]: 2.68% | Form change (XRPD) ([1]; 25° C./60% RH/1 week, listed as Arginine salt): no form change and No | Area (%) of peak at RRT 1.13 ([1]; 40° C./75% RH, 1 week): 0.06% | Area (%) of peak at RRT 0.77 [1, 9]: 0.04% | Area (%) of peak at RRT 1.35 [1, 9]: 0.11% | Area (%) of peak at RRT 1.45 [1, 9]: 0.47% | Area (%) of peak at RRT 1.71 [1, 9]: 0.73% | Area (%) of peak at RRT 1.73 [1, 9]: 0.60% | HPLC purity change [1, 9]: slight purity decrease | Area (%) of peak at RRT 1.00 [1, 9]: 95.50% | Area (%) of peak at RRT 1.17 [1, 9]: 2.48% | Form change (XRPD) ([1]; 40° C./75% RH/1 week, listed as Arginine salt): no form change and No | Area (%) of peak at RRT 1.35 ([1]; Initial): <0.03% | Area (%) of peak at RRT 0.77 [1, 10]: <0.03% | Area (%) of peak at RRT 1.13 [1, 10]: <0.03% | Area (%) of peak at RRT 1.45 [1, 10]: 0.44% | Area (%) of peak at RRT 1.71 [1, 10]: 0.73% | Area (%) of peak at RRT 1.73 [1, 10]: <0.53% | Area (%) of peak at RRT 1.00 [1, 10]: 95.91% | Area (%) of peak at RRT 1.17 [1, 10]: 2.39% | Initial purity ([1]; listed as Arginine salt): 95.91 area % | water uptake (DVS) ([2]; at 80% RH): 1.43% | hygroscopicity (DVS) ([2]; from water uptake at 80% RH): slight hygroscopic
